Entries after “also recorded” stand apart in the source; their conditions may differ.
Experiments:
[1] = system: myoblast C2C12; assay: Gene analysis (RNA-seq) in C-82 treated myoblasts; assay type: cell-based, mouse; conditions: C-82 treated C2C12
Method: This Example investigated what gene modulation C-82 is involved with in myoblast C2C12 to identify a gene that is useful in the diagnosis or treatment of sarcopenia.
Gene analysis (RNA-seq) in C-82 treated myoblasts was performed by the same method as Example 2.

[2] = system: 74-week old mice (C57B16/J); assay: Grip strength test (smart grip strength meter); assay type: in vivo, mouse; conditions: 7 mg/kg and 20 mg/kg intraperitoneal twice a week for 6 weeks
Method: 74-week old mice (C57B16/J) were purchased from Oriental Yeast. Various concentrations (0 mg/kg (control), 7 mg/kg, and 20 mg/kg) of C-82 were administered twice a week through a 6-week intraperitoneal administration until reaching 80-week old. Muscle strength (endurance) and grip strength of mice administered with C-82 were then measured through a treadmill test and smart grip strength meter for rats and mice (Muromachi Kikai Co., Ltd.), respectively. The treadmill test was conducted under the same condition as Example 1.

[3] = Body weight and behavior during the dosing period; assay type: in vivo, mouse; conditions: intraperitoneal, twice a week over three months, 20 mg/kg/day; young and old mice
Method: OK-1 manufactured in Manufacturing Example 1 was intraperitoneally administered to young and old mice twice a week over three months. The dosage was 20 mg/kg/day.

[4] = system: ALS mouse models (e.g., SOD1G93A mice); assay: ALS mouse model; assay type: in vivo; conditions: administered versus non-administered group
Method: ALS mouse models (e.g., SOD1G93A mice) were divided into two groups. OK was administered to one of the groups, and OK was not administered to the other group.

[5] = system: old mice; assay: Muscle mass by MRI (volume of right gastrocnemius muscle/soleus muscle), with/without treadmill exercise; assay type: in vivo, mouse
Method: OK-1 was then intraperitoneally administered to each mouse twice a week at 20 mg/kg/day over 8 weeks (i.e., until reaching 23 week old and 88 week old, respectively). Treadmill exercise was conducted three times a week at 8 m/minute for 5 minutes→15 m/minute for 35 minutes while administering OK-1 twice a week at 20 mg/kg/day over 5 weeks (i.e., until reaching 28 week old and 93 week old, respectively). The muscle mass was then measured with the following equipment and conditions through MRI (FIG. 1B). MRI (MRminiSA1545, Japan REDOX) (magnetic flux density: 1.5 tesla (permanent magnet) (temporal resolution: 100 ns) was used to capture images of the lower limbs of the mice. The recovered data was converted into dicom data, and the volume of right gastrocnemius muscle/soleus muscle was quantified with Osirix Lite.

[6] = Blood (plasma) test of six markers with biochemical automatic analyzer; assay type: in vivo, mouse
Method: 75-week old mice (C57B16/J) were purchased from Oriental Yeast. Various concentrations (0 mg/kg (control), 0.2 mg/kg, 2 mg/kg, 20 mg/kg, and 40 mg/kg) of OK-1 were administered twice a week for 12 weeks until reaching 87-week old. Blood (plasma) was then recovered, and the concentrations of the following six markers were measured using a biochemical automatic analyzer (JCA-BM6050, JEOL). • LDH: lactate dehydrogenase can predict a liver, myocardial, or skeletal muscle disorder, etc. A decrease in LDH is expected to have a therapeutic effect on acute hepatitis, chronic hepatitis, cirrhosis, liver cancer, and other liver diseases, acute myocardial infarction, congested heart failure, and other heart diseases, polymyositis, muscular dystrophy, and other muscular diseases, pernicious anemia, leukemia, hemolytic anemia, etc. • ALT: This is a biomarker that can predict a liver tissue disorder. A decrease in ALT is expected to have a therapeutic effect on acute hepatitis, chronic hepatitis, alcoholic hepatitis, cirrhosis, liver cancer, fatty liver, acute myocardial infarction and other heart diseases, progressive muscular dystrophy and other muscular diseases, etc. • TG: Neutral fat is used for predicting diabetes, obesity, or arteriosclerotic disease. A decrease in TG is expected to have a therapeutic effect on hyperchylomicronemia, LPL deficiency, diabetes, obesity, arteriosclerosis, gout, hypothyroidism, Cushing's syndrome, nephrotic syndrome, obstructive jaundice, acute/chronic pancreatitis, etc. • HDL-C: This is used as a marker for arteriosclerosis, diabetes, cirrhosis, etc., of HDL cholesterol. A decrease in HDL-C is expected to have a therapeutic effect on primary biliary cirrhosis and hyperthyroidism. • UN: Urea nitrogen is a biomarker that can predict dysfunction of kidney or urinary system. An increase in UN is expected to have a therapeutic effect on toxic hepatitis, fulminant hepatitis, end-stage of cirrhosis, diabetes insipidus, acromegaly, etc. • UA: Uric acid is a biomarker for kidney or liver function. An increase in UA is expected to have a therapeutic effect on cirrhosis, xanthinuria, Fanconi syndrome, Wilson's syndrome, glomerulonephritis, etc.

[7] = 75-week old mice, 0.2, 2, 20, 40 mg/kg twice a week for 12 weeks
[8] = at a specific OK-1 concentration, twice a week for 12 weeks

## C[C@H]1[C@H]2N(C(=O)CN(C)N2C(=O)NCc2ccccc2)[C@@H](Cc2ccc(O)cc2)C(=O)N1Cc1cccc2cccnc12 [C-82, (6S,9S)—N-benzyl-6-(4-hydroxybenzyl)-2,9-dimethyl-4,7-dioxo-8-(quinolin-8-ylmethyl)hexahydro-2H-pyrazino[2,1-c][1,2,4]triazine-1(6H)-carboxamide]
[1]
  gene group associated with C-82 (upstream transcription factor analysis): Nfkb1, Srebf2, Sp1, Trp53, Xbp1, Myod1, Srebf1, Jun, Stat3, Sp3, Myf6, Nr3c1, Foxo3, Nfe212, Myf5, Ahr, Ep300, Myog, and Usf2
  genes decreased significantly in myoblasts: 611 genes
  genes increased significantly in myoblasts: 581 genes
[2]
  grip strength: a significant difference was not observed in grip strength, a tendency for a concentration dependent increase was observed; also recorded: a significant difference was not observed in grip strength, a tendency of a concentration dependent increase was observed

## C[C@H]1[C@H]2N(C(=O)CN(C)N2C(=O)NCc2ccccc2)[C@@H](Cc2ccc(OP(=O)(O)O)cc2)C(=O)N1Cc1cccc2cccnc12 [OK-1]
[3]
  change in body weight and behavioral abnormality during the dosing period: a significant change in body weight and behavioral abnormality were not observed
[4]
  ALS: ALS is improved
[5]; 20 mg/kg/day twice a week plus treadmill exercise three times a week over 5 weeks
  muscle mass (MRI), combined use of administration with exercise: muscle mass significantly recovers synergistically
[5]; intraperitoneal 20 mg/kg/day twice a week over 8 weeks, then 5 further weeks
  muscle mass (MRI): increases muscle mass in old mice
[6]; 0.2 to 40 mg/kg twice a week for 12 weeks
  HDL-C concentration: A significant change was not observed
[6]; [7]
  LDH concentration: reduces the LDH concentration
  UA concentration: increases the UA concentration at all concentrations
[6]; [8]
  ALT concentration: a decrease in the ALT concentration
  TG concentration: a decrease in TG concentration
  UN concentration: an increase in UN concentration
